Test results reported in publication PMC6950057, “Toxicity, Pharmacokinetics, and Gut Microbiome of Oral Administration of Sesterterpene MHO7 Derived from a Marine Fungus” (Marine Drugs, 2019).
Like-named read-outs stand apart in the source and are kept apart here.

Key:
[1] = Log D by shaking flask method (n-octanol/phosphate buffer); format: physicochemical; conditions: 37 °C
Method: An HPLC system (Shimadzu, Japan) was equipped with a LC-20AD binary pump system, a SIL-20AD auto sampler, a CBM-20A system controller, and a CTO-20A oven. Separation of MHO7 and IS from endogenous substances was carried out on an Agilent Zorbax XDB C18 column (5 μm, 250 × 4.6 mm, Agilent, Pal Alto, CA, USA), which was kept at 30 °C. The mobile phase was composed of 30% phase A (water) and 70% phase B (acetonitrile) with a flow rate of 1 mL·min^−1. The inject volume of the sample solution was 10 μL.
The phases of distilled water and n-octanol were saturated with each other by shaking for 48 h with 250 rpm in a shaking water bath prior to use. Solutions of MHO7 was prepared in concentration of 10 mM·L^−1 in n-octanol. Accurately measured amounts of the two solvents with necessary quantity of MHO7 were placed in a 5.0 mL centrifuge tube; then, the mixture was carried out at 250 rpm and designated temperature in the shaking water bath for 48 h to afford complete phase separation. The samples of both phases were collected at 0, 4, 8, 12, 24, 30, 36 and 48 h, diluted with methanol (1:1, V) and determined by HPLC with the detection wavelength of 234 nm. Each set of solvent systems for experimental logP/D value was the mean of the three determinations.

KM mice = assay: Acute toxicity / maximum tolerated dose, oral; format: in vivo; design: Body weight / Heart weight / Liver weight / spleen weight / lung weight / kidney weight / Reproductive organs weight / brain weight: unit not given here; conditions: for Body weight / Heart weight / Liver weight / Reproductive organs weight / brain weight / kidney weight / lung weight / spleen weight: 2400 mg/kg
Method: (§1) Male and female KM mice of 8–10 weeks of age (20–22 g) were used in acute toxicity experiment and only female KM mice were subjected in other animal experiments. All mice were purchased from the Vital River Laboratory Animal Technology Co. Ltd. (Beijing, China). The mice were bred in a standard environment (23 ± 1 °C; humidity of 60 ± 5%) with a 12-h light/dark cycle and food and water were provided ad libitum. All animal protocols were approved by the Animal Care and Use Committee of Wuhan University Center for Animal Experiment ABSL-Ⅲ Laboratory and complied with the Guide for the Care and Use of Laboratory Animals (NIH publication, 8th edition, 2011). In total, 130 mice were used for in vivo studies under the ethical approved protocols.
(§2) Male and female KM mice of 8–10 weeks of age (20–22 g) were used in acute toxicity experiment. After animals were acclimatized for 1 week, 20 female and 20 male mice were randomly and evenly divided into four groups. The mice of acute toxicity experiment were fasted overnight and administered by the oral dose of MHO7 (2400 mg·kg^−1, bw) diluted in corn oil the next morning. Then, mice were placed with free access to chow and water. […] The number surviving and their behaviors was also recorded every day.

[2] = Acute toxicity / maximum tolerated dose, oral; format: in vivo, mice; design: Body weight / Heart weight / Liver weight / spleen weight / lung weight / kidney weight / Reproductive organs weight / brain weight: unit not given here; conditions: both sexes, mouse, in vivo, 2400 mg·kg^−1; oral administration, male and female KM mice; read-out: maximum tolerable dose (MTD)
Method: as §1, §2

CC(C)=C/C=C/[C@H](C)[C@H]1CC[C@]2(C)C[C@@H]3C(C)=CC(=O)[C@H]3/C(C=O)=C\C[C@@H]12 [MHO7, 6-epi-ophiobolin G]
logD at 4 h ([1]; octanol/PBS pH 1.5, 4 h, read-out: Log P/D Value O/P (pH 1.5)): 1.29 ± 0.02 | logD at 8 h ([1]; octanol/PBS pH 1.5, 8 h, read-out: Log P/D Value O/P (pH 1.5)): 1.22 ± 0.04 | logD at 12 h ([1]; octanol/PBS pH 1.5, 12 h, read-out: Log P/D Value O/P (pH 1.5)): 1.13 ± 0.03 | logD at 24 h ([1]; octanol/PBS pH 1.5, 24 h, read-out: Log P/D Value O/P (pH 1.5)): 1.13 ± 0.02 | logD at 30 h ([1]; octanol/PBS pH 1.5, 30 h, read-out: Log P/D Value O/P (pH 1.5)): 1.12 ± 0.15 | logD at 36 h ([1]; octanol/PBS pH 1.5, 36 h, read-out: Log P/D Value O/P (pH 1.5)): 1.12 ± 0.03 | logD at 48 h ([1]; octanol/PBS pH 1.5, 48 h, read-out: Log P/D Value O/P (pH 1.5)): 1.12 ± 0.03 | logD at 4 h ([1]; octanol/PBS pH 5.0, 4 h, read-out: Log P/D Value O/P (pH 5.0)): 1.15 ± 0.02 | logD at 8 h ([1]; octanol/PBS pH 5.0, 8 h, read-out: Log P/D Value O/P (pH 5.0)): 1.03 ± 0.05 | logD at 12 h ([1]; octanol/PBS pH 5.0, 12 h, read-out: Log P/D Value O/P (pH 5.0)): 0.95 ± 0.03 | logD at 24 h ([1]; octanol/PBS pH 5.0, 24 h, read-out: Log P/D Value O/P (pH 5.0)): 0.95 ± 0.04 | logD at 30 h ([1]; octanol/PBS pH 5.0, 30 h, read-out: Log P/D Value O/P (pH 5.0)): 0.95 ± 0.03 | logD at 36 h ([1]; octanol/PBS pH 5.0, 36 h, read-out: Log P/D Value O/P (pH 5.0)): 0.93 ± 0.03 | logD at 48 h ([1]; octanol/PBS pH 5.0, 48 h, read-out: Log P/D Value O/P (pH 5.0)): 0.93 ± 0.02 | logD at 4 h ([1]; octanol/PBS pH 7.4, 4 h, read-out: Log P/D Value O/P (pH 7.4)): 1.39 ± 0.03 | logD at 8 h ([1]; octanol/PBS pH 7.4, 8 h, read-out: Log P/D Value O/P (pH 7.4)): 1.37 ± 0.05 | logD at 12 h ([1]; octanol/PBS pH 7.4, 12 h, read-out: Log P/D Value O/P (pH 7.4)): 1.31 ± 0.03 | logD at 24 h ([1]; octanol/PBS pH 7.4, 24 h, read-out: Log P/D Value O/P (pH 7.4)): 1.29 ± 0.02 | logD at 30 h ([1]; octanol/PBS pH 7.4, 30 h, read-out: Log P/D Value O/P (pH 7.4)): 1.27 ± 0.04 | logD at 36 h ([1]; octanol/PBS pH 7.4, 36 h, read-out: Log P/D Value O/P (pH 7.4)): 1.26 ± 0.05 | logD at 48 h ([1]; octanol/PBS pH 7.4, 48 h, read-out: Log P/D Value O/P (pH 7.4)): 1.26 ± 0.01 | Body weight (KM mice; female mice): 33.30±2.1 | Heart weight (KM mice; female mice): 0.15±0.01 | Liver weight (KM mice; female mice): 1.49±0.09 | Reproductive organs weight (KM mice; female mice): 0.21±0.05 | brain weight (KM mice; female mice): 0.40±0.07 | kidney weight (KM mice; female mice): 0.46±0.02 | lung weight (KM mice; female mice): 0.22±0.02 | spleen weight (KM mice; female mice): 0.13±0.05 | Body weight (KM mice; male mice): 38.75±2.96 | Heart weight (KM mice; male mice): 0.18±0.02 | Liver weight (KM mice; male mice): 2.39±0.38 | Reproductive organs weight (KM mice; male mice): 0.19±0.02 | brain weight (KM mice; male mice): 0.42±0.06 | kidney weight (KM mice; male mice): 0.58±0.06 | lung weight (KM mice; male mice): 0.22±0.03 | spleen weight (KM mice; male mice): 0.15±0.03 | weight ranges (Table S5), treatment vs control group (KM mice; oral 2400 mg·kg^−1): no significant difference | observed toxicity (KM mice; oral 2400 mg·kg^−1, 14 days observation): No obvious toxicity was observed | body weight, MHO7 group vs control group (KM mice; oral 2400 mg·kg^−1, after seven days): no significant difference | diarrhea (KM mice; oral 2400 mg·kg^−1, female and male mice, returned to normal within two days): a small number of animals with diarrhea was found during the first day | tolerability (KM mice; oral administration 2400 mg·kg^−1): well-tolerated | MTD at 2 weeks [2]: 2400 mg/kg
